Reference: patent US9034825B2, “Treatment of myocardial injury with humanin analogs” (Albert Einstein College of Medicine of Yeshiva University, priority 2007, dated 2015)

Experiments:
BP3KO MEFs = experiment: Apoptosis ELISA in IGFBP3 KO mouse embryonic fibroblasts; format: cell-based; details: 24 hours, 100 nM of peptides
Description: (§1) Mouse embryonic fibroblasts derived from normal and IGFBP3 KO mice were used to test the effects of humanin and its analogues on survival. Apoptosis ELISA was used as an output measure and cells were treated for 24 hours with 100 nM of peptides. […] Thus, the HNGF6A humanin analogue has non-obvious properties that are different from previously described humanin derivatives and has increased potency as a result of its specific molecular alteration leading to reduced IGFBP-3 binding.

normal MEFs = experiment: Apoptosis ELISA in normal mouse embryonic fibroblasts; format: cell-based; details: 24 hours, 100 nM of peptides
Description: as §1

NONcNZO10/LtJ mice = experiment: IP glucose tolerance test in NONcNZO10/LtJ mice; format: in vivo, mouse; details: IP 25 microgram twice a day for 14 days; IP GTT on D15
Description: NONcNZO10/LtJ mice were injected IP with HNGF6A 25 microgram twice a day for 14 days. Mice were subjected to 6 hour fast followed by IP GTT on D15. Baseline glucose measurement was taken and the mice were injected IP with 0.5 mg/g glucose. Glucose was sampled at 0 and 90, 120 min.

Sprague-Dawley rats = experiment: Intravenous infusion of humanin or analogs during hyperinsulinemic clamp; format: in vivo, rat; details: infused peripherally 0.0375 mg/kg/hr
IGFBP-3 = IGFBP-3 (Homo sapiens, UniProt P17936); experiment: Dot blots probed with radiolabeled IGFBP-3; format: binding; details: FIG. 17A
Description: For acute signaling studies, rats were injected ICV with either aCSF, 20 μg of HN or F6A (dissolved in aCSF) over 5 min, and sacrificed 30 min later. Tissue sample were obtained from mediobasal hypothalamus, liver and muscle. Samples were also obtained from these tissues at the end of the clamp and western blot analysis was performed as described previously (Muzumdar et al. 2003) The blots were scanned using the LI-COR Odyssey (LI-COR, Lincoln, Nebr., USA) and quantified using Odyssey 2.0 software based on direct fluorescence measurement. Dot blots were performed by blotting 50 ng of humanin, HN-analogues, and IGF on nitrocellulose, incubating with 125-I-labeled-IGFBP-3, autoradiography and scanning.

IGFBP-3, sequence (P17936 28-291): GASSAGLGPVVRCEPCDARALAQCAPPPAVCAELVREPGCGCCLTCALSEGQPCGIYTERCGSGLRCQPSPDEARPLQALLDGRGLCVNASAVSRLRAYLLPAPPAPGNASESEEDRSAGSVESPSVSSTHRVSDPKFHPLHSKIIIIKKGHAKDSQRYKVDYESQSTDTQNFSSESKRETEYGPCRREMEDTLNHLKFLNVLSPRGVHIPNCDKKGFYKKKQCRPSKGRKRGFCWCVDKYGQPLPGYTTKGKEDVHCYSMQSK

MAPRGASCLLLLTGEIDLPVKRRA (Humanin analog HNGF6A) [HN with alanine at 6th amino acid]
potency on survival (Apoptosis ELISA) (BP3KO MEFs): equal potency
potency on survival (Apoptosis ELISA) (normal MEFs): more potent
glucose levels at 90 and 120 min (NONcNZO10/LtJ mice): significantly lower
glucose tolerance (NONcNZO10/LtJ mice): significantly better glucose tolerance
glucose infusion rates during clamp (Sprague-Dawley rats): significantly higher
hepatic glucose production (Sprague-Dawley rats; clamp): suppressive effects
peripheral glucose uptake (Sprague-Dawley rats; clamp): significant increase
ability to bind IGFBP-3 (IGFBP-3): completely devoid of the ability to bind IGFBP-3
